≈ marks a conversion by molar mass, not a printed value.
What was measured:
Assay type in all cases: cell-based
Providencia 12012 = test: MIC, agar dilution test, Providencia 12012; conditions: agar dilution test / Isosensitest medium
From the text: (§1) As a comparison, the corresponding MIC values of 1-ethyl-6-fluoro-1,4-dihydro-4-oxo-7-(1-piperazinyl)-1,8-naphthyridine-3-carboxylic acid (AT 2266, enoxacin), which is known from European Patent Application 9,425, Japanese Patent Applications 81/45473 [C.A. 95, 115 597 (1981)] and 81/46811 [C.A. 95, 121 142 (1981)], from J. Med. Chem. 27, 292 (1984) or from J. Heterocycl.
(§2) Agar dilution test / Isosensitest medium

Pseudomonas W. = test: MIC, agar dilution test, Pseudomonas W.; conditions: agar dilution test / Isosensitest medium
From the text: as §1, §2

Klebsiella 6179 = test: MIC, agar dilution test, Klebsiella 6179; conditions: agar dilution test / Isosensitest medium
From the text: as §1, §2

E.coli 4418 = test: MIC, agar dilution test, E.coli 4418; conditions: Escherichia coli, agar dilution test / Isosensitest medium
From the text: as §1, §2

E.Coli 455/7 = test: MIC, agar dilution test, E.Coli 455/7; conditions: Escherichia coli, agar dilution test / Isosensitest medium
From the text: as §1, §2

Klebsiella 63 = test: MIC, agar dilution test, Klebsiella 63; conditions: agar dilution test / Isosensitest medium
From the text: as §1, §2

Staphyloc. 1756 = test: MIC, agar dilution test, Staphyloc. 1756; conditions: agar dilution test / Isosensitest medium
From the text: as §1, §2

Proteus vulg. 1017 = test: MIC, agar dilution test, Proteus vulg. 1017; conditions: agar dilution test / Isosensitest medium
From the text: as §1, §2

Serratia 16040 = test: MIC, agar dilution test, Serratia 16040; conditions: agar dilution test / Isosensitest medium
From the text: as §1, §2

E.coli Neum. = test: MIC, agar dilution test, E.coli Neum.; conditions: Escherichia coli, agar dilution test / Isosensitest medium
From the text: as §1, §2

Proteus mir. 8175 = test: MIC, agar dilution test, Proteus mir. 8175; conditions: agar dilution test / Isosensitest medium
From the text: as §1, §2

Proteus morg. 11006 = test: MIC, agar dilution test, Proteus morg. 11006; conditions: agar dilution test / Isosensitest medium
From the text: as §1, §2

Staphyloc. 133 = test: MIC, agar dilution test, Staphyloc. 133; conditions: agar dilution test / Isosensitest medium
From the text: as §1, §2

MIC (Providencia 12012)	MIC (Pseudomonas W.)	MIC (Klebsiella 6179)	MIC (E.coli 4418)	MIC (E.Coli 455/7)	MIC (Klebsiella 63)	MIC (Staphyloc. 1756)	MIC (Proteus vulg. 1017)	MIC (Serratia 16040)	MIC (E.coli Neum.)	MIC (Proteus mir. 8175)	MIC (Proteus morg. 11006)	MIC (Staphyloc. 133)	SMILES
0.25 µg/mL (≈ 0.78 µM)	2 µg/mL (≈ 6.24 µM)	2 µg/mL (≈ 6.24 µM)	0.25 µg/mL (≈ 0.78 µM)	16 µg/mL (≈ 49.9 µM)	0.5 µg/mL (≈ 1.56 µM)	1 µg/mL (≈ 3.12 µM)	0.125 µg/mL (≈ 0.39 µM)	32 µg/mL (≈ 99.9 µM)	0.06 µg/mL (≈ 0.187 µM)	0.25 µg/mL (≈ 0.78 µM)	0.125 µg/mL (≈ 0.39 µM)	1 µg/mL (≈ 3.12 µM)	CCn1cc(C(=O)O)c(=O)c2cc(F)c(N3CCNCC3)nc21 [Enoxacin, 1-ethyl-6-fluoro-1,4-dihydro-4-oxo-7-(1-piperazinyl)-1,8-naphthyridine-3-carboxylic acid, reference compound]
0.03 µg/mL (≈ 0.0903 µM)	0.125 µg/mL (≈ 0.376 µM)	0.125 µg/mL (≈ 0.376 µM)	0.03 µg/mL (≈ 0.0903 µM)	4 µg/mL (≈ 12 µM)	0.03 µg/mL (≈ 0.0903 µM)	0.5 µg/mL (≈ 1.5 µM)	0.06 µg/mL (≈ 0.181 µM)	8 µg/mL (≈ 24.1 µM)	≤ 0.015 µg/mL	0.125 µg/mL (≈ 0.376 µM)	0.06 µg/mL (≈ 0.181 µM)	0.5 µg/mL (≈ 1.5 µM)	O=C(O)c1cn(C2CC2)c2nc(N3CCNCC3)c(F)cc2c1=O [Example 1, 1-Cyclopropyl-6-fluoro-1,4-dihydro-4-oxo-7-(1-piperazinyl)-1,8-naphthyridine-3-carboxylic acid]
0.125 µg/mL (≈ 0.361 µM)	1 µg/mL (≈ 2.89 µM)	0.125 µg/mL (≈ 0.361 µM)	0.03 µg/mL (≈ 0.0866 µM)	8 µg/mL (≈ 23.1 µM)	≤ 0.015 µg/mL	0.5 µg/mL (≈ 1.44 µM)	0.125 µg/mL (≈ 0.361 µM)	8 µg/mL (≈ 23.1 µM)	≤ 0.015 µg/mL	0.25 µg/mL (≈ 0.722 µM)	0.03 µg/mL (≈ 0.0866 µM)	0.5 µg/mL (≈ 1.44 µM)	CC1CN(c2nc3c(cc2F)c(=O)c(C(=O)O)cn3C2CC2)CCN1 (stereo not shown) [Example 2, 1-Cyclopropyl-6-fluoro-1,4-dihydro-7-(3-methyl-1-piperazinyl)-4-oxo-1,8-naphthyridine-3-carboxlyic acid]
0.06 µg/mL	1 µg/mL	0.03 µg/mL	0.06 µg/mL	8 µg/mL	≤ 0.015 µg/mL	0.5 µg/mL	0.125 µg/mL	8 µg/mL	≤ 0.015 µg/mL	0.25 µg/mL	0.06 µg/mL	0.5 µg/mL	CN1CCN(c2nc3c(cc2F)c(=O)c(C(=O)O)cn3C2CC2)CC1.Cl [Example 3, 1-Cyclopropyl-6-fluoro-1,4-dihydro-7-(4-methyl-1-piperazinyl)-4-oxo-1,8-naphthyridine-3-carboxylic acid hydrochloride]

From patent US4840954A, “6,7-disubstituted 1-cycloproply-1,4-dihydro-4-oxo-1,8-naphthyridine-3-carboxylic acids” (Bayer Aktiengesellschaft, priority 1985, dated 1989)
